Experimental data reported in a melting point compilation (Tetko et al.; mined from patent text by program, amines drawn as free bases though some values may be those of a salt).

**Q.** For `COc1cc2c(cc1OCc1ccccc1)CCN(Cc1cccc(O)c1)C2`, which melting point is on record?
**A.** 78 to 79 °C

**Q.** For `O=Cc1c(Cl)[nH]c2ccccc12`, which melting point is on record?
**A.** 227 °C

**Q.** Which melting point does the source give for `O=C1CC(NCCCOc2cccc(CN3CCCCC3)c2)=Nc2ccccc21` here?
**A.** 171 to 172 °C

**Q.** For `CC(Cc1ccc(O)cc1)NCC(O)c1cccc(Cl)c1` (stereo not given), which melting point is on record?
**A.** 50 to 55 °C

**Q.** With `CC(C)(Cc1cc2cc(OCc3ccc4ccccc4n3)ccc2n1Cc1ccc(Cl)cc1)C(=O)O` as the compound, how does the melting point read?
**A.** 193 to 194 °C

**Q.** For `CN(C)c1cc(Cl)c2c(c1)NC(=O)C(C)(c1ccccc1)C2=O` (stereo not given), which melting point is on record?
**A.** 224 to 226 °C

**Q.** Which melting point does the source give for `CCNC(=N)N(C(=N)NCC)c1cc(C(C)(C)C)c2c(c1)C(C)(C)CO2` here?
**A.** > 290 °C

**Q.** For `CN1CCN(c2cccc3ccc(NC(=O)c4ccc(O)cc4)cc23)CC1`, which melting point is on record?
**A.** 156 to 160 °C

**Q.** Which melting point does the source give for `C=CCCC(=O)N1CCc2nnc(N(C)N)cc2C1` here?
**A.** 128 to 130 °C

**Q.** For `O=C(OCc1ccccc1)N1C[C@@H](O)[C@H](Oc2cccc(Cl)c2Cl)C1` (relative stereo), which melting point is on record?
**A.** 130 to 132 °C

**Q.** Which melting point does the source give for `Clc1cccc2c1Nc1ccccc1N=C2N1CCN(Cc2ccc3c(c2)OCO3)CC1` here?
**A.** 160 to 162 °C

**Q.** For `CC(C)c1cc(O)c(O)c(C(=O)O)c1`, which melting point is on record?
**A.** 151 to 152 °C

**Q.** Which melting point does the source give for `O=Cc1c2ccccc2c(OCCOCc2ccccc2)c2ccccc12` here?
**A.** 68 to 69 °C

**Q.** With `O=C(c1cccnc1)C(O)c1ccccc1Cl` (stereo not given) as the compound, how does the melting point read?
**A.** 92 °C

**Q.** For `CC(=O)NCc1ccsc1`, which melting point is on record?
**A.** 46 to 47 °C

**Q.** Which melting point does the source give for `CCC1=C(C(=O)OC)C(c2cccc([N+](=O)[O-])c2)c2c(nc(N3CCOCC3)nc2N2CCOCC2)N1` (stereo not given) here?
**A.** 225 °C

**Q.** With `O=C(O)c1[nH]c2cc(Cl)cc(Cl)c2c1NCS(=O)(=O)c1ccccc1` as the compound, how does the melting point read?
**A.** 286 to 290 °C

**Q.** With `O=C(O)C1C(=O)Nc2ccccc2SC1c1ccc2c(c1)OCO2` (mixture of isomers) as the compound, how does the melting point read?
**A.** 110 °C

**Q.** For `COC(=O)N(C)n1c(C)nc(N2CCc3ccccc3CC2)c(C#N)c1=O`, which melting point is on record?
**A.** 120 to 122 °C

**Q.** For `CCNC(=O)NCc1ccc(/C=C/C(c2cc(Cl)cc(Cl)c2)C(F)(F)F)cc1Cl` (stereo not given), which melting point is on record?
**A.** 177 to 178 °C

**Q.** Which melting point does the source give for `CC(C)n1nc(-c2c(-c3ccccc3)nc(N)[nH]c2=O)ccc1=O` here?
**A.** 291 to 295 °C

**Q.** With `OCCN1CCN(C2=Nc3ccccc3Sc3ccccc32)CC1` as the compound, how does the melting point read?
**A.** 57 to 60 °C

**Q.** For `CC(C)(Cc1ccc(OC(F)(F)F)cc1)C(=O)C(C)(C)n1cncn1`, which melting point is on record?
**A.** 100 °C

**Q.** Which melting point does the source give for `Cc1cc(-n2cncn2)ncc1[N+](=O)[O-]` here?
**A.** 198 to 200 °C

**Q.** Which melting point does the source give for `CNC(=O)OCC(F)(F)Cn1nc(C)c(-c2ccc3c(c2)NC(=O)CO3)c1-c1ccc(F)cc1` here?
**A.** 112 °C

**Q.** With `CCCc1nc(NC)n2ncc(C(=O)c3ccccc3Cl)c2n1` as the compound, how does the melting point read?
**A.** 116 to 118 °C

**Q.** Which melting point does the source give for `Cc1cc(OCc2ccccc2)cc(OCC2CCCCC2)c1C(=O)O` here?
**A.** 127 to 128 °C

**Q.** Which melting point does the source give for `c1ccc(-c2ccc3[nH]c4ccccc4c3c2)cc1` here?
**A.** 221 °C

**Q.** For `COc1ccc(-c2cc3nc(N4CCC4)c4ccccc4c3nn2)cc1`, which melting point is on record?
**A.** 196 to 198 °C

**Q.** For `CCC1c2ccc(F)n2-c2ccc(F)cc2N1S(=O)(=O)c1ccc(O)c(C)c1` (stereo not given), which melting point is on record?
**A.** 149 to 151 °C

**Q.** With `COc1cccc2c1CCC(CN1C(=O)c3ccccc3C1=O)C2` (stereo not given) as the compound, how does the melting point read?
**A.** 143 to 144 °C

**Q.** Which melting point does the source give for `CCOC(=O)C1=C(NC(=O)Nc2cc(C(=O)OC(C)C)c(F)cc2Br)CCC1` here?
**A.** 166 to 168 °C

**Q.** For `COC(=O)c1ccc(/C=C/c2cnc3ccccc3c2)cc1`, which melting point is on record?
**A.** 92 to 94 °C

**Q.** With `Cc1nc(-c2ccc(C(=O)N(C)c3ccc(Cl)cc3)cc2)sc1C(=O)O` as the compound, how does the melting point read?
**A.** 210 to 212 °C

**Q.** Which melting point does the source give for `N#CCc1ccc(-c2ccc(C(CC3CCOCC3)c3ccc(S(=O)(=O)C4CC4)cc3)[nH]2)nc1` (stereo not given) here?
**A.** 139 to 141 °C

**Q.** For `CC(=O)Nc1nc(-c2ccc(S(=O)(=O)CCO)cc2)cs1`, which melting point is on record?
**A.** 258 to 260 °C

**Q.** For `COc1cccc(OC)c1C(=O)N1CC2CCCN2c2ccccc21` (stereo not given), which melting point is on record?
**A.** 140 to 142 °C

**Q.** For `CC(C)Oc1ccc([N+](=O)[O-])cc1O`, which melting point is on record?
**A.** 139 °C

**Q.** For `CC(=O)NC[C@H]1CN(c2ccc(-n3nccc3-c3cccnc3)c(F)c2)C(=O)O1`, which melting point is on record?
**A.** 83.7 to 85.9 °C

**Q.** Which melting point does the source give for `CC(=O)Nc1cc(-c2ccncc2)c[nH]c1=O` here?
**A.** > 300 °C

**Q.** With `COc1cccc2c1CCC(CN1CCC(O)(c3ccccc3)CC1)C2=O` (stereo not given) as the compound, how does the melting point read?
**A.** 163 to 165 °C

**Q.** With `COc1ccccc1C1NC(=O)C(C)S1` (stereo not given) as the compound, how does the melting point read?
**A.** 187 to 188 °C

**Q.** With `C=CCCc1sc(C#N)c2c1C(=O)CC(C)(C)C2` as the compound, how does the melting point read?
**A.** 43 to 46 °C

**Q.** With `O=[N+]([O-])c1cnc(N2CCc3ccccc3CC2)c([N+](=O)[O-])c1` as the compound, how does the melting point read?
**A.** 137 to 140 °C

**Q.** Which melting point does the source give for `COCCc1nc2c(N)nc3ccccc3c2n1CCCNC(=O)c1ccccc1` here?
**A.** 183 to 186 °C

**Q.** For `COC(=O)c1cc(-c2ccccc2)c(=O)n2c1-c1sccc1CC2`, which melting point is on record?
**A.** 116 °C

**Q.** For `COC(=O)c1sccc1NC(=S)N1CCN(c2ncnc3cc(OC)c(OC)cc23)CC1`, which melting point is on record?
**A.** 226 to 228 °C

**Q.** With `O=C(O)CCN1C(=O)CSC1=S` as the compound, how does the melting point read?
**A.** 155 to 156 °C

**Q.** With `CC(=O)CC(=O)NC1CCCCCC1` as the compound, how does the melting point read?
**A.** 52 °C

**Q.** For `[N-]=[N+]=NCc1ccc(C(=O)c2ccc(Cl)cc2)c(Cl)c1`, which melting point is on record?
**A.** 33 to 33.5 °C
